Assay results as given in article doi:10.1101/2025.06.04.657800v3, “Advancing Ligand Binding Affinity Prediction with Cartesian Tensor-Based Deep Learning” (biorxiv, 2025).

Experiments:
ENPP1 [1] = biological target: T1, ENPP1 (Homo sapiens, UniProt P22413); assay: in vitro enzyme activity assay; format: biochemical
T1 construct: purified ENPP1 protein for PTS, enzyme assay and SPR
T1 sequence (P22413 1-925): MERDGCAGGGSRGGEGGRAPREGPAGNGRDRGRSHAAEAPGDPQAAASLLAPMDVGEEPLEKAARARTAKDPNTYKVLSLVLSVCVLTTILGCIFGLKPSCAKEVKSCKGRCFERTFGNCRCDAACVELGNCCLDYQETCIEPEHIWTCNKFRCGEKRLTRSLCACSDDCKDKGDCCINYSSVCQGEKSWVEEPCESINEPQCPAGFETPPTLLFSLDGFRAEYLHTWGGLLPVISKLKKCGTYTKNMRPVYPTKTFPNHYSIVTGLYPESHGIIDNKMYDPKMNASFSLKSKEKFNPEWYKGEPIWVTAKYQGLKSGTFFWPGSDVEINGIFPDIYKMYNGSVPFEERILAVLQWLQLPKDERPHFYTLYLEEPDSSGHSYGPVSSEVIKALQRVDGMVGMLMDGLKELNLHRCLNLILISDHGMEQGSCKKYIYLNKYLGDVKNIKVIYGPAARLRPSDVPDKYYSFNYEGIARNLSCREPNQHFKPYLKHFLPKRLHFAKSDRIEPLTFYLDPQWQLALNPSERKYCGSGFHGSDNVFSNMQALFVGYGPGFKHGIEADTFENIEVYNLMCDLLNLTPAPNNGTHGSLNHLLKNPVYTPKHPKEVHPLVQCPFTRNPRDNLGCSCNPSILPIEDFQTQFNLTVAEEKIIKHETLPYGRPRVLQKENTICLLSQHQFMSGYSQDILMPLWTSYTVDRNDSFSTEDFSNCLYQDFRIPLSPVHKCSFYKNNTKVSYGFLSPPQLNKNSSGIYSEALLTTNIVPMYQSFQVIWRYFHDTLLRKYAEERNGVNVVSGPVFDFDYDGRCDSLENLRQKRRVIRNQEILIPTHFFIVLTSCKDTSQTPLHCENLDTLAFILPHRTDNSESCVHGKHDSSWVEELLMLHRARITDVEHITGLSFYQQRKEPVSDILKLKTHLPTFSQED

ENPP1 [2] = biological target: T1, ENPP1; assay: surface plasmon resonance; format: binding
ALDH1B1 [3] = biological target: T2, ALDH1B1 (Homo sapiens, UniProt P30837); assay: surface plasmon resonance; format: binding
T2 construct: purified ALDH1B1 protein, wild type and alanine mutants
T2 sequence (P30837 18-517): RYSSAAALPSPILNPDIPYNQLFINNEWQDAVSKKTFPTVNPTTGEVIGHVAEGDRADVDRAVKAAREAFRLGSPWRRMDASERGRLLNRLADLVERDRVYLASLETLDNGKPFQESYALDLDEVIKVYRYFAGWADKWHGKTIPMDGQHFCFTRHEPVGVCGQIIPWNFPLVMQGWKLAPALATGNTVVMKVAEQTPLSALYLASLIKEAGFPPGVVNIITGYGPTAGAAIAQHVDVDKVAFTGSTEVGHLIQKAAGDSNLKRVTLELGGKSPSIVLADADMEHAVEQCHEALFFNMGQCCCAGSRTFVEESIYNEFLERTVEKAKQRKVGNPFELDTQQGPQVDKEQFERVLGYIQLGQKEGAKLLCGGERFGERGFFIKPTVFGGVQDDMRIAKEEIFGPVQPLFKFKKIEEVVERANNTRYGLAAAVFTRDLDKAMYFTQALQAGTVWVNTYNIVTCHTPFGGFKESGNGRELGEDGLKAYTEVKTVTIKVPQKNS

ALDH1B1 [4] = biological target: T2, ALDH1B1; assay: in vitro enzyme activity assay; format: biochemical

SMILES	IC50 (ENPP1 [1])	Kd (ENPP1 [2])	Kd (ALDH1B1 [3])	IC50 (ALDH1B1 [4])
COc1cccc(F)c1-c1nc(C(=O)Nc2ccccc2N2CCC(NS(N)(=O)=O)CC2)cn2ccnc12 [A2]	2280 nM	1030 nM		
Fc1cc(F)c2c(c1)[C@H]1C=CC[C@H]1[C@@H](c1cccnc1)N2 [B2]			1210 nM	5570 nM
Fc1cc(F)c2c(c1)[C@@H]1C=CC[C@@H]1[C@H](c1cccnc1)N2 [B1]			15.2 nM	20 nM
